Assay results: PubChem BioAssay AID330 (DTP/NCI, 2004)
Where “and” joins values, the source holds several entries; their conditions need not be identical. Equal entries are not always repeated. Inconclusive results and toxic doses are left out. How the source made its calls: active means survival T/C of 150% or more; inactive means T/C below 125% in these data.

System: P388 leukemia ip, CD2F1 mice, survival T/C
Assay: NCI In Vivo Anticancer Drug Screen. Data for tumor model P388 Leukemia (intraperitoneal) in CD2F1 (CDF1) mice
Conditions: endpoint: median survival time, higher = longer survival
Summary of the method: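 Mice carrying the transplanted tumor received test compound or vehicle. Survival was recorded in each group, and the value is the treated-group measurement divided by that of the vehicle-treated control group.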

[1] = dose: 60.0 mg/kg/injection, schedule: Q01DX005 (ip), vehicle: saline with Tween-80
[2] = dose: 120.0 mg/kg/injection, schedule: Q01DX005 (ip), vehicle: saline with Tween-80
[3] = dose: 240.0 mg/kg/injection, schedule: Q01DX005 (ip), vehicle: saline with Tween-80
[4] = dose: 25.0 mg/kg/injection, schedule: Q01DX009 (ip), vehicle: Klucel (hydroxypropylcellulose) (HPC)
[5] = dose: 50.0 mg/kg/injection, schedule: Q01DX009 (ip), vehicle: Klucel (hydroxypropylcellulose) (HPC)
[6] = dose: 100.0 mg/kg/injection, schedule: Q01DX009 (ip), vehicle: Klucel (hydroxypropylcellulose) (HPC)
[7] = dose: 200.0 mg/kg/injection, schedule: Q01DX009 (ip), vehicle: Klucel (hydroxypropylcellulose) (HPC)
[8] = dose: 100.0 mg/kg/injection, schedule: Q01DX001 (ip), vehicle: saline with Tween-80
[9] = dose: 200.0 mg/kg/injection, schedule: Q01DX001 (ip), vehicle: saline with Tween-80
[10] = dose: 400.0 mg/kg/injection, schedule: Q01DX001 (ip), vehicle: saline with Tween-80
[11] = dose: 50.0 mg/kg/injection, schedule: Q01DX005 (ip), vehicle: Klucel (hydroxypropylcellulose) (HPC)
[12] = dose: 100.0 mg/kg/injection, schedule: Q01DX005 (ip), vehicle: Klucel (hydroxypropylcellulose) (HPC)
[13] = dose: 50.0 mg/kg/injection, schedule: Q01DX009 (ip), vehicle: saline with Tween-80
[14] = dose: 100.0 mg/kg/injection, schedule: Q01DX009 (ip), vehicle: saline with Tween-80
[15] = dose: 200.0 mg/kg/injection, schedule: Q01DX009 (ip), vehicle: saline with Tween-80
[16] = dose: 25.0 mg/kg/injection, schedule: Q01DX009 (ip), vehicle: saline with Tween-80

Measured: T/C

CN=C(N)c1ccc(N=C(N)c2ccc(C(N)=Nc3ccc(C(N)=NC)cc3)cc2)cc1
active: dose: 20.0 mg/kg/injection, schedule: Q01DX009 (ip), vehicle: saline 172 % of control | dose: 30.0 mg/kg/injection, schedule: Q01DX005 (ip), vehicle: saline 163 % of control
inactive: dose: 1.3 mg/kg/injection, schedule: Q01DX005 (iv), vehicle: saline 100 % of control | dose: 5.0 mg/kg/injection, schedule: Q04DX003 (ip), vehicle: saline 100 % of control | dose: 6.48 mg/kg/injection, schedule: Q04DX002 (ip), vehicle: saline 92 % of control | dose: 10.0 mg/kg/injection, schedule: Q04DX003 (ip), vehicle: saline 100 % of control | dose: 10.8 mg/kg/injection, schedule: Q01DX005 (ip), vehicle: water 120 % of control

CC1OC(C)(C2CC2)OC1C (centres undefined)
inactive: dose: 100.0 mg/kg/injection, schedule: Q04DX003 (ip), vehicle: Klucel (hydroxypropylcellulose) (HPC) 95 % of control | dose: 200.0 mg/kg/injection, schedule: Q04DX003 (ip), vehicle: Klucel (hydroxypropylcellulose) (HPC) 100 % of control

CN(C)C1C(=O)c2ccccc2C1=O
inactive: [1] 96 % of control | [2] 107 % of control | [3] 112 % of control

COc1ccc(CCNC(C)Cc2ccc(OC)c(OC)c2)cc1OC (centres undefined)
inactive: dose: 3.13 mg/kg/injection, schedule: Q01DX009 (ip), vehicle: water 94 % of control | dose: 6.25 mg/kg/injection, schedule: Q01DX009 (ip), vehicle: water 92 % of control | dose: 12.5 mg/kg/injection, schedule: Q01DX009 (ip), vehicle: water 96 % of control | dose: 25.0 mg/kg/injection, schedule: Q01DX009 (ip), vehicle: water 100 % of control | dose: 50.0 mg/kg/injection, schedule: Q01DX009 (ip), vehicle: water 99 % of control

O=S1(=O)CCN(C2CCCC2)CC1
inactive: [4] 94 % of control | [5] 93 % of control and 95 % of control | [6] 92 % of control and 95 % of control | [7] 99 % of control and 94 % of control

COc1ccc(C2=C/C(=C/c3ccc(N(CCC#N)CCC#N)cc3)C(=O)O2)cc1
inactive: [8] 97 % of control | [9] 95 % of control | [10] 92 % of control

Oc1oc(-c2ccccc2)nc1/C=C1/C(Cl)=Nc2ccccc21
inactive: [8] 99 % of control | [9] 99 % of control | [10] 100 % of control

CCOC(=O)n1oc2ccccc2c1=O
inactive: [11] 99 % of control | [12] 98 % of control | dose: 200.0 mg/kg/injection, schedule: Q01DX005 (ip), vehicle: Klucel (hydroxypropylcellulose) (HPC) 98 % of control

Cc1cc([N+](=O)[O-])ccc1NC(=O)n1nnc2cc(Cl)ccc21
inactive: [5] 98 % of control | [6] 98 % of control | [7] 107 % of control

Nc1nc(/C=C\c2ccccc2)cc(-c2cc(/C=C\c3ccccc3)nc(N)n2)n1
inactive: dose: 30.0 mg/kg/injection, schedule: Q01DX005 (ip), vehicle: Klucel (hydroxypropylcellulose) (HPC) 97 % of control | dose: 60.0 mg/kg/injection, schedule: Q01DX005 (ip), vehicle: Klucel (hydroxypropylcellulose) (HPC) 90 % of control and 94 % of control | dose: 120.0 mg/kg/injection, schedule: Q01DX005 (ip), vehicle: Klucel (hydroxypropylcellulose) (HPC) 97 % of control | dose: 240.0 mg/kg/injection, schedule: Q01DX005 (ip), vehicle: Klucel (hydroxypropylcellulose) (HPC) 95 % of control

O=C1c2ccccc2C(=O)c2c(NCCO)ccc(NCCO)c21
inactive: dose: 25.0 mg/kg/injection, schedule: Q04DX002 (ip), vehicle: saline with Tween-80 96 % of control | dose: 50.0 mg/kg/injection, schedule: Q04DX002 (ip), vehicle: saline with Tween-80 91 % of control | dose: 100.0 mg/kg/injection, schedule: Q04DX002 (ip), vehicle: saline with Tween-80 95 % of control | dose: 200.0 mg/kg/injection, schedule: Q04DX002 (ip), vehicle: saline with Tween-80 90 % of control

CC12c3ccccc3CCN1C(c1ccccc1)=NN2c1ccccc1 (centres undefined)
inactive: [8] 105 % of control | [9] 103 % of control | [10] 102 % of control

FC(F)(F)c1nc2nc(Cl)c(Cl)nc2[nH]1
inactive: dose: 25.0 mg/kg/injection, schedule: Q04DX003 (ip), vehicle: other 100 % of control | dose: 50.0 mg/kg/injection, schedule: Q04DX003 (ip), vehicle: other 109 % of control

COC(=O)C1=C/C=C\CN(/C=C/c2ccccc2)/C=C\1C(=O)OC
inactive: dose: 100.0 mg/kg/injection, schedule: Q04DX003 (ip), vehicle: alcohol 97 % of control | dose: 200.0 mg/kg/injection, schedule: Q04DX003 (ip), vehicle: alcohol 112 % of control | dose: 400.0 mg/kg/injection, schedule: Q04DX003 (ip), vehicle: alcohol 94 % of control

CCC(=N\N=C(N)N)/C(CC)=N/N=C(N)N
inactive: [1] 101 % of control | [2] 97 % of control

O=c1[nH]cc(F)c(=O)[nH]1.[Tl]
inactive: dose: 0.78 mg/kg/injection, schedule: Q01DX009 (ip), vehicle: Klucel (hydroxypropylcellulose) (HPC) 99 % of control | dose: 1.56 mg/kg/injection, schedule: Q01DX009 (ip), vehicle: Klucel (hydroxypropylcellulose) (HPC) 103 % of control | dose: 3.13 mg/kg/injection, schedule: Q01DX009 (ip), vehicle: Klucel (hydroxypropylcellulose) (HPC) 115 % of control

Cc1ccc2c(c1)C(=S)NC(=O)C2
inactive: dose: 12.5 mg/kg/injection, schedule: Q01DX009 (ip), vehicle: distilled water + Tween-80 87 % of control | dose: 50.0 mg/kg/injection, schedule: Q01DX009 (ip), vehicle: distilled water + Tween-80 93 % of control | dose: 100.0 mg/kg/injection, schedule: Q01DX009 (ip), vehicle: distilled water + Tween-80 91 % of control | dose: 200.0 mg/kg/injection, schedule: Q01DX009 (ip), vehicle: distilled water + Tween-80 95 % of control

CC(C)=C(OS(=O)(=O)C(F)(F)F)[Si](C)(C)C
inactive: [13] 99 % of control | [14] 105 % of control | [15] 105 % of control

O=[N+]([O-])c1ccc(Oc2c3ccccc3nc3ccccc23)cc1
inactive: dose: 50.0 mg/kg/injection, schedule: Q01DX005 (ip), vehicle: saline with Tween-80 90 % of control | dose: 100.0 mg/kg/injection, schedule: Q01DX005 (ip), vehicle: saline with Tween-80 90 % of control | dose: 200.0 mg/kg/injection, schedule: Q01DX005 (ip), vehicle: saline with Tween-80 93 % of control

O=C1NC(=O)C(SSC2C(=O)NC(=O)NC2=O)C(=O)N1
inactive: [5] 109 % of control | [6] 95 % of control | [7] 94 % of control

O=C(CCCBr)c1ccccc1
inactive: [16] 107 % of control | [13] 100 % of control | [14] 107 % of control | [15] 100 % of control

O=C(O)CCC1NC(=O)NC1=O (centres undefined)
inactive: dose: 50.0 mg/kg/injection, schedule: Q01DX001 (ip), vehicle: saline 100 % of control | dose: 100.0 mg/kg/injection, schedule: Q01DX001 (ip), vehicle: saline 103 % of control | dose: 200.0 mg/kg/injection, schedule: Q01DX001 (ip), vehicle: saline 104 % of control | dose: 400.0 mg/kg/injection, schedule: Q01DX001 (ip), vehicle: saline 94 % of control

COc1cccc2c1C(=O)C=C(c1ccccc1)S2(=O)=O
inactive: [11] 111 % of control | [12] 111 % of control

OCC1OC(n2cnc3c(NO)ncnc32)CC1O (centres undefined)
inactive: dose: 12.5 mg/kg/injection, schedule: Q01DX009 (ip), vehicle: Klucel (hydroxypropylcellulose) (HPC) 100 % of control | [4] 112 % of control | [5] 100 % of control | [6] 100 % of control

CN=C(c1ccc(NC(=O)c2cccc(C(=O)Nc3ccc(C(=NC)N(C)C4CCCCC4)cc3)c2)cc1)N(C)C1CCCCC1
inactive: dose: 1.56 mg/kg/injection, schedule: Q01DX005 (ip), vehicle: Klucel (hydroxypropylcellulose) (HPC) 104 % of control | dose: 3.12 mg/kg/injection, schedule: Q01DX005 (ip), vehicle: Klucel (hydroxypropylcellulose) (HPC) 102 % of control

O=c1[nH]c(=O)n(O)c2nc[nH]c12
inactive: dose: 12.5 mg/kg/injection, schedule: Q01DX009 (ip), vehicle: saline with Tween-80 90 % of control | [16] 100 % of control | [13] 90 % of control

C/C=C\C=C/NC(=O)N1CCCC1
inactive: [1] 113 % of control | [2] 118 % of control | [3] 116 % of control
